Here are results for 30 compounds from patent publication US7498343B2, “Mycobacterial inhibitors” (priority 2002, dated 2009).

One assay relates to M. Smegmatis ATCC607. Description: In-vitro method for testing compounds for anti-bacterial activity against strain M. smegmatis ATCC607 (Alamar Blue growth inhibition). The class given is cell-based. Conditions: M. smegmatis ATCC607; pIC50 = -logIC50, IC50 in M, 50% inhibitory concentration for bacterial growth; 48 hours incubation. As for the experimental part: C.2. In-vitro Method for Testing Compounds for Anti-bacterial Activity Against Strain M. Smegmatis ATCC607. […] Subsequently, stock solutions (7.8×final test concentration) of compounds were added in 45 μl volumes to a series of duplicate wells in column 2 so as to allow evaluation of their effects on bacterial growth. Serial five-fold dilutions (45 μl in 180 μl) were made directly in the microtiter plates from column 2 to 11 using a customised robot system (Zymark Corp., Hopkinton, Mass.). Pipette tips were changed after every 3 dilutions to minimize pipetting errors with high hydrophobic compounds. Untreated control samples with (column 1) and without (column 12) inoculum were included in each microtiter plate. Approximately 250 CFU per well of bacteria inoculum, in a volume of 100 μl in 2.8×Mueller-Hinton broth medium, was added to the rows […]. The same volume of broth medium without inoculum was added to column 12 in row A to H. The cultures were incubated at 37° C. for 48 hours in a humidified 5% CO2 atmosphere (incubator with open air valve and continuous ventilation). At the end of incubation, two days after inoculation, the bacterial growth was quantitated fluorometrically. Therefore Alamar Blue (10×) was added to all wells in a volume of 20 μl and plates were incubated for another 2 hours at […] The fluorescence was read in a computer-controlled fluorometer (Cytofluor, Biosearch) at an excitation wavelength of 530 nm and an emission wavelength of 590 nm (gain 30). The % growth inhibition achieved by the compounds was calculated according to standard methods.

Assay [1] deals with Mycobacterium tuberculosis (strain H37RV). Description: In-vitro method for testing compounds against M. tuberculosis (resazurin growth inhibition, MIC). The class given is cell-based. Conditions: MIC data representing IC90's, 7 days incubation, resazurin fluorescence.

In the case of `COc1nc2ccc(Br)cc2cc1C(c1ccccc1)C(O)(CN(C)C)c1ccccc1` (single isomer, unassigned) [Compound 61], the pIC50 in the assay on M. Smegmatis ATCC607 stood at 4.5. In addition, the MIC in assay [1] stood at 39.04 microgram/ml.

For `COc1nc2ccc(Br)cc2cc1C(c1ccccc1)C(O)(CN(C)C)c1ccccc1` (single isomer, unassigned) [Compound 62], in the assay on M. Smegmatis ATCC607, the pIC50 came out at 5.9. The MIC in assay [1] was determined as 7.79 microgram/ml.

`COc1nc2ccc(Br)cc2cc1C(c1ccccc1)C(O)(CCCN(C)C)c1ccccc1` (single isomer, unassigned) [Compound 63] yielded a negative logarithm of the IC50 (pIC50) with M. Smegmatis ATCC607 of 6.7. In addition, the MIC in assay [1] is given as 1.64 microgram/ml.

For `COc1nc2ccc(Br)cc2cc1C(c1ccccc1)C(O)(CCCN(C)C)c1ccccc1` (single isomer, unassigned) [Compound 64], the negative logarithm of the IC50 (pIC50) with M. Smegmatis ATCC607 came out at 5.8. In assay [1], the MIC came to 6.54 microgram/ml.

On to `COc1nc2ccc(Br)cc2cc1C(c1ccccc1)C(O)(CCCCN(C)C)c1ccccc1` (single isomer, unassigned) [Compound 65], for which, in the assay on M. Smegmatis ATCC607, the pIC50 stood at 5.7. In addition, the MIC in assay [1] was found to be 1.69 microgram/ml.

As to `COc1nc2ccc(Br)cc2cc1C(c1ccccc1)C(O)(CCCCN(C)C)c1ccccc1` (single isomer, unassigned) [Compound 66], the pIC50 in the assay on M. Smegmatis ATCC607 is listed as 4.7. In addition, in assay [1], the MIC is 1.69 microgram/ml.

In the assay on M. Smegmatis ATCC607, `COc1nc2ccc(Br)cc2cc1C(c1ccccc1)C(O)(CCc1ccccc1)CCN(C)C` (single isomer, unassigned) [Compound 96] returned a pIC50 of 6.2. Moreover, in assay [1], the MIC came to 21.24 microgram/ml.

`COc1ccc2nc(OC)c(C(c3ccccc3)C(O)(CCN(C)C)c3cccc4ccccc34)cc2c1` (single isomer, unassigned) [Compound 97]: the pIC50 with M. Smegmatis ATCC607 was 5.9. The compound also had an MIC in assay [1] of 20.17 microgram/ml.

Compound `COc1ccc2nc(OC)c(C(c3ccccc3)C(O)(CCN(C)C)c3cccc4ccccc34)cc2c1` (single isomer, unassigned) [Compound 98] gave a negative logarithm of the IC50 (pIC50) with M. Smegmatis ATCC607 of 7.9. The compound further showed an MIC in assay [1] of 0.51 microgram/ml.

As to `COc1nc2ccc(Br)cc2cc1C(c1ccccc1)C(O)(CC[N+](C)(C)[O-])c1cccc2ccccc12` (single isomer, unassigned) [Compound 100], in the assay on M. Smegmatis ATCC607, the negative-log IC50 (pIC50) is listed as 7.1. In assay [1], this compound gave an MIC of 45.40 microgram/ml.

In the case of `COc1nc2ccc(Br)cc2cc1C(c1ccccc1)C(O)(CC[N+](C)(C)C)c1cccc2ccccc12.[I-]` (single isomer, unassigned) [Compound 102], the negative-log IC50 (pIC50) with M. Smegmatis ATCC607 is 6.5. Also, the MIC in assay [1] was 2.21 microgram/ml.

In the assay on M. Smegmatis ATCC607, `CN(C)CCC(O)(c1ccccc1)C(c1ccccc1)c1cc2cc(Br)ccc2n(C)c1=O` (single isomer, unassigned) [Compound 106] gave a pIC50 of 6.2. This compound gave an MIC in assay [1] of 55.55 microgram/ml.

In the assay on M. Smegmatis ATCC607, `CN(C)CCC(O)(c1ccccc1)C(c1ccccc1)c1cc2cc(Br)ccc2n(C)c1=O` (single isomer, unassigned) [Compound 107] registered a pIC50 of 5.8. Further, the MIC in assay [1] amounted to 44.13 microgram/ml.

The compound `COc1nc2ccc(Cl)cc2cc1C(c1ccccc1)C(O)(CCN(C)C)c1cccc2ccccc12` (single isomer, unassigned) [Compound 119] came in with a negative logarithm of the IC50 (pIC50) in the assay with M. Smegmatis ATCC607 of 7.8. Moreover, in assay [1], the MIC was found to be 10.20 microgram/ml.

With `COc1nc2ccc(Cl)cc2cc1C(c1ccccc1)C(O)(CCN(C)C)c1cccc2ccccc12` (single isomer, unassigned) [Compound 120], in the assay on M. Smegmatis ATCC607, the pIC50 is recorded as 5.9. In assay [1], the MIC was 40.60 microgram/ml.

Compound `COc1nc2ccc(Br)cc2cc1C(c1ccccc1)C(O)(CC[N+](C)(C)C)c1cccc2ccccc12.[I-]` (single isomer, unassigned) [Compound 121] gave a pIC50 with M. Smegmatis ATCC607 of 5.9. Moreover, the MIC in assay [1] was 2.21 microgram/ml.

Regarding `COc1nc2ccc(Br)cc2cc1C(c1ccccc1)C(O)(CCN(C)C)c1ccc2c3c(cccc13)CC2` (single isomer, unassigned) [Compound 122], the pIC50 in the assay with M. Smegmatis ATCC607 is recorded as 4.8. The MIC in assay [1] is on record as 58.16 microgram/ml.

In the assay with M. Smegmatis ATCC607, `COc1nc2ccc(Br)cc2cc1C(c1ccccc1)C(O)(CCCN(C)C)c1ccc2ccccc2c1` (single isomer, unassigned) [Compound 125] gave a negative logarithm of the IC50 (pIC50) of 4.4. Moreover, the MIC in assay [1] is recorded as 18.01 microgram/ml.

With `COc1nc2ccc(Br)cc2cc1C(c1ccccc1)C(O)(CCCN(C)C)c1ccc2ccccc2c1` (single isomer, unassigned) [Compound 126], the pIC50 in the assay on M. Smegmatis ATCC607 stood at 5.2. In assay [1], this compound gave an MIC of 56.96 microgram/ml.

In the assay with M. Smegmatis ATCC607, `COc1nc2ccc(Br)cc2cc1C(c1ccccc1)C(O)(CCN(C)C)c1ccc2c(Br)cccc2c1` (single isomer, unassigned) [Compound 127] displayed a negative-log IC50 (pIC50) of 6.9. Moreover, in assay [1], the MIC is recorded as 25.26 microgram/ml.

`COc1nc2ccc(Br)cc2cc1C(c1ccccc1)C(O)(CCN(C)C)c1ccc2c(Br)cccc2c1` (single isomer, unassigned) [Compound 130] showed a pIC50 in the assay with M. Smegmatis ATCC607 of 5.3. In addition, in assay [1], the MIC is on record as 50.32 microgram/ml.

`COc1nc2ccc(Br)cc2cc1C(c1ccccc1)C(O)(CCN(C)C)c1cccc2c1CCCC2` (single isomer, unassigned) [Compound 131] came in with a negative-log IC50 (pIC50) in the assay on M. Smegmatis ATCC607 of 6.9. The compound also registered an MIC in assay [1] of 44.45 microgram/ml.

In the assay with M. Smegmatis ATCC607, `COc1nc2ccc(Br)cc2cc1C(c1ccccc1)C(O)(CCCN1CCCC1)c1ccc2ccccc2c1` (single isomer, unassigned) [Compound 132] registered a negative-log IC50 (pIC50) of 4.4. The same compound gave an MIC in assay [1] of 47.31 microgram/ml.

In the assay on M. Smegmatis ATCC607, `COc1nc2ccc(Br)cc2cc1C(c1ccccc1)C(O)(CCCN1CCCC1)c1ccc2ccccc2c1` (single isomer, unassigned) [Compound 133] yielded a pIC50 of 5.1. Also, in assay [1], the MIC stood at 59.56 microgram/ml.

Turning to `COc1ccc2nc(OC)c(C(c3ccccc3)C(O)(CCN(C)C)c3cccc(F)c3)cc2c1` (single isomer, unassigned) [Compound 134], the pIC50 in the assay with M. Smegmatis ATCC607 worked out at 6.5. In addition, in assay [1], the MIC is recorded as 7.52 microgram/ml.

Turning to `COc1ccc2nc(OC)c(C(c3ccccc3)C(O)(CCN(C)C)c3cccc(F)c3)cc2c1` (single isomer, unassigned) [Compound 135], the negative logarithm of the IC50 (pIC50) with M. Smegmatis ATCC607 is 7.4. The compound further displayed an MIC in assay [1] of 1.50 microgram/ml.

In turn, `CN(C)CCC(O)(c1cccc2ccccc12)C(c1ccccc1)c1cc2cc(Br)ccc2[nH]c1=O` (single isomer, unassigned) [Compound 138] returned a pIC50 in the assay with M. Smegmatis ATCC607 of 6.6. Also, the MIC in assay [1] came out at 8.58 microgram/ml.

The compound `COc1nc2ccc(Br)cc2cc1C(c1ccccc1)C(O)(CCN1CCOCC1)c1ccc2ccccc2c1` (single isomer, unassigned) [Compound 139] came in with a pIC50 in the assay with M. Smegmatis ATCC607 of 4.1. For the same compound, in assay [1], the MIC turned out to be 59.76 microgram/ml.

In the case of `COc1nc2ccc(Br)cc2cc1C(c1ccccc1)C(O)(CCN1CCOCC1)c1ccc2ccccc2c1` (single isomer, unassigned) [Compound 140], in the assay on M. Smegmatis ATCC607, the pIC50 was determined as 5.8. For the same compound, the MIC in assay [1] is 59.76 microgram/ml.

For the compound `COc1nc2ccc(Br)cc2cc1C(c1ccccc1)C(O)(CCN(C)C)c1cc(Br)cc2ccccc12` (single isomer, unassigned) [Compound 143], in the assay on M. Smegmatis ATCC607, the pIC50 is reported as 6.9. The compound further returned an MIC in assay [1] of 50.39 microgram/ml.
